Test system: our antisera (rabbit polyclonal antisera against BSA-MBG conjugate)
Assay: competition ELISA with rabbit polyclonal anti-MBG antisera
Assay type: binding
Details: competition assay
Experimental: Initially, both BSA and BLG were employed as the carrier protein. In the former case, excess BSA was added to the reaction mixture to inhibit anti-BSA antibodies from binding to the conjugate. When the BLG-marinobufagenin congugate became available, BLG-marinobufagenin was used for antibody detection. This ELISA format was used as the basis for a competitive ELISA for the detection of marinobufagenin in body specimens.
In an alternative approach, rabbits were immunized with the BSA-MBG conjugate for the production of polyclonal antisera. […] The resulting polyclonal sera were assessed for the presence of MBG-specific antibodies by ELISA (FIG. 11). In this particular format, two of the rabbits produced a strong humoral immune response that allowed dilution of the primary (rabbit) antiserum down to 1 in 4*10^6, even when using a relatively insensitive photometric readout. […] This particular assay has now been equipped with a chemifluorescent readout (using commercially available reagents) and has now reached the target sensitivity of less than 10 pg MBG/ml. As expected, rat urine samples can be measured without prior treatment, but rat plasma and/or serum samples require solid phase extraction using a C8 solid phase and acetonitrile in the mobile phase. Upon drying the eluate of obtained from the extraction cartridge by vacuum centrifugation, MBG can be measured in the circulation of the rat.

## C[C@]12CC[C@H](O)C[C@H]1CC[C@@H]1[C@@H]2CC[C@]2(C)[C@@H](c3ccc(=O)oc3)C[C@H]3O[C@]132 [RBG, resibufogenin]
  cross-reactivity with antisera: only measurable at extremely high doses

Reference: patent US20110207154A1, “METHOD FOR DETERMINATION OF MARIN[…] AND COMPOUNDS […] SUCH METHOD” (SCOTT & WHITE HEALTHCARE, priority 2010, published 2011)
